Reference: patent US10487078B2, “Compositions and methods of targeting mutant K-RAS” (NantBio, Inc., priority 2015, dated 2019)
Like-named read-outs stand apart in the source and are kept apart here.

Columns and labels:
K-Ras wild-type = K-Ras wild-type (Homo sapiens, UniProt P01116); experiment: G-LISA Ras activation assay, 293H cells transfected with Ras wild-type, EGF-stimulated; assay type: cell-based; settings: 1 hour treatment, 100 ng/ml EGF
Description: (§1) 293H cells were seeded in 6-wells at 0.6×10^6 cells per well and transfected next day with 5 μg of Ras wild-type, or G12C, G12D or G12V mutant DNA plasmid vector using transfection reagent Lipofectamine 3000. Next day cells were treated with 3.125-50 μM of Ras compounds for 1 hour. Wild-type transfected cells were subsequently treated with 100 ng/ml EGF for 2 minutes. Cells were washed once in ice-cold PBS, lysed in complete lysis buffer on ice, and processed by G-LISA according to Cytoskeleton protocol.
(§2) In-cell selectivity of the compounds presented herein against a specific K-ras mutant form can also be tested as shown in the following exemplary experiment. 293H cells were seeded in 6-wells and transfected next day with 5 μg of Ras wild-type, or G12C, G12D or G12V mutant DNA plasmid vector. Next day cells were treated with 3.125-50 μM of Ras compounds for 1 hour. Wild-type transfected cells were subsequently treated with 100 ng/ml EGF for 2 minutes. Cells were washed once in ice-cold PBS, lysed in complete lysis buffer on ice, and processed by G-LISA according to Cytoskeleton protocol. FIG. 1 depicts exemplary results.
as §1, with “In still further experiments, the inventors tested selected compounds in a G-LISA assay to compare IC50 values for wild-type and various mutant K-Ras (G12D, G12V) using the following general protocol: 293H” for “293H”

K-ras G12D = K-ras G12D (Homo sapiens, UniProt P01116, G12D); experiment: G-LISA Ras activation assay, 293H cells transfected with G12D mutant; assay type: cell-based; settings: for IC50: 1 hour treatment
Description: as §1, §2
as §1, with “In still further experiments, the inventors tested selected compounds in a G-LISA assay to compare IC50 values for wild-type and various mutant K-Ras (G12D, G12V) using the following general protocol: 293H” for “293H”

Panc1 (G12D) cells = experiment: 72 hr cell viability (CellTiterBlue); assay type: cell-based; settings: GI50, 72 hr
Description: (§3) Viability assays were performed on exemplary compounds and Table 2 below lists exemplary results for selected compounds tested on wild type (Ishikawa) and various K-ras mutants (Panc1-G12D; Panc10.05-G12D; HCT116-G13D).
(§4) Cells are counted and seeded at 1000 cells/36 ul medium/well into 384-well microplates. Cells are returned to 37° C. CO2 incubator for 18 hr. Drug is made as 200× in DMSO and diluted into medium to 10×. To each well is added 4 ul 10× drug, and plates are returned to the incubator. Final assay DMSO concentration is 0.5%. After 72 hr, 8 ul CellTiterBlue (Promega) is added to each well. After 3 hr, fluorescence (Ex550/Em590) is determined on the Victor Plate Reader (Perkin Elmer). Assay range is determined by DMSO control (100% viability) and 100 uM tamoxifen (0% viability). GI50 values are calculated using Graphpad Prism.

Panc10.05 (G12D) cells = experiment: 72 hr cell viability (CellTiterBlue); assay type: cell-based; settings: GI50, 72 hr
Description: as §3, §4

[1] = system: Akt phosphorylation in Panc1 (G12D) cells; experiment: In-Cell Western Akt phosphorylation; assay type: cell-based; settings: EC50, one hour treatment; read-out: In-Cell Western Akt phosporylation Panc1 (G12D)
Description: In-cell phosphorylation assays for Erk and Akt were performed on various of the compounds and exemplary results are shown in Table 3 below using […] and Panc10.05 cell lines for G12D K-ras mutants.
Cells are seeded in complete medium into black sided, clear-bottom 384-well microplates at 3000 cells/[…]/well. Plates are returned to 37° C. CO2 incubator for 18 hr. Drug is made as 200× in DMSO and diluted into medium to 10×. To each well is added 4 ul 10× test article or controls, and plates are returned to the incubator. Final assay DMSO concentration is 0.5%. After one hour, cells are fixed in formaldehyde, rinsed & permeabilized with triton X-100, and blocked with BSA/Goat serum blocking solution. Primary phospho-Akt and phospho-ERK antibodies are added and plates are incubated overnight at 4° C. Plates are rinsed with Tween-20 wash buffer and secondary antibody (Goat anti-rabbit, Thermofisher) is added. After 2 hours, plates are rinsed in Tween-20 wash buffer, and then PBS. Plates are imaged on the Celigo (Nexcelom) and cellular fluorescence is quantitated. Full inhibition of phospho-Akt is achieved with 1 uM BEZ235 (Sellekchem), while full inhibition of phospho-ERK is achieved with 1 uM MEK Inhibitor II Calbiochem). EC50 values are calculated using Graphpad Prism.

K-ras G12D (GDP) = K-ras G12D (GDP) (Homo sapiens, UniProt P01116, G12D); experiment: SPR assay (surface plasmon resonance); assay type: binding; settings: 25° C., 8% DMSO
Description: (§5) Selected compounds were also tested for selective binding to wild type and mutant forms of K-ras in the active and non-active state using surface plasmon resonance, and exemplary results are shown in Table 4.
(§6) The running buffer in all surface plasmon resonance experiments was 10 mM HEPES pH 7.4, 150 mM NaCl, 0.1% (v/v) Tween-20, 1 mM MgCl2, 8% DMSO. Experiments were carried out on the SensiQ Pioneer optical biosensor. The flow rate was set at 50 μL/min and the temperature was 25° C. kRAS protein was immobilized to the Nickel-NTA charged surface of the SensiQ HisCap chip (sensiqtech.com) giving a yield of 4000 RU. Small molecules were prepared in 100% DMSO and further diluted to 8% DMSO in running buffer. The small molecules were injected using the Taylor diffusion gradient injection mode (OneStep®, see e.g., Evaluation of Taylor dispersion injections: Determining kinetic/affinity interaction constants and diffusion coefficients in label-free biosensing, John G. Quinn, Analytical Biochemistry (2011)). Buffer blanks were injected for double referencing purposes. Data processing and model fitting were performed using Qdat.

K-ras G12D (GTP) = K-ras G12D (GTP) (Homo sapiens, UniProt P01116, G12D); experiment: SPR assay (surface plasmon resonance); assay type: binding; settings: 25° C., 8% DMSO
Description: as §5, §6

K-ras G12V (GTP) = K-ras G12V (GTP) (Homo sapiens, UniProt P01116, G12V); experiment: SPR assay (surface plasmon resonance); assay type: binding; settings: 25° C., 8% DMSO
Description: as §5, §6

K-ras wild-type (GDP) = K-ras wild-type (GDP) (Homo sapiens, UniProt P01116); experiment: SPR assay (surface plasmon resonance); assay type: binding; settings: 25° C., 8% DMSO
Description: as §5, §6

K-ras wild-type (GTP) = K-ras wild-type (GTP) (Homo sapiens, UniProt P01116); experiment: SPR assay (surface plasmon resonance); assay type: binding; settings: 25° C., 8% DMSO
Description: as §5, §6

`Cc1nc(C)c(C(=O)Nc2nc(-c3ccc4[nH]c(=O)[nH]c4c3)cs2)s1` [Compound 4562] was tested, and the IC50 (K-Ras wild-type; Table 1, G-LISA, 293H transfected, read-out: IC50 (μM) Wild-type) was 0.5 µM, the IC50 (K-Ras wild-type; Table 5, IC50, 293H transfected, read-out: G-LISA (wild type)) was 0.5 µM and the “In-cell selectivity among K-ras forms, G-LISA (FIG. 1)” value (K-ras G12D; 293H transfected with wild-type, G12C, G12D or G12V, 3.125-50 μM, 1 hour) was “pronounced selectivity towards the G12D mutant form”. For the same molecule, the “IC50 for G12D compared to the wild type, G-LISA (FIG. 1)” value (K-ras G12D; 293H transfected, 3.125-50 μM, 1 hour) was “lower IC50 as compared to the wild type”, the IC50 (K-ras G12D; Table 1, G-LISA, 293H transfected, read-out: IC50 (μM) G12D) was 10 µM and the IC50 (K-ras G12D; Table 5, IC50, 293H transfected, read-out: G-LISA (G12D)) was 7 to 13 µM. It also gave an IC50 (Panc1 (G12D) cells) of 6 µM, an IC50 (Panc10.05 (G12D) cells) of 2 µM and an EC50 [1] of 8 µM. The Kd (K-ras G12D (GDP)) was 111 µM, the “SPR Assay G12D (GDP) Rmax” value (K-ras G12D (GDP)) was “Rmax = 66.0 ± 0.9” and the “SPR Assay G12D (GTP) Kd” value (K-ras G12D (GTP)) was “No binding/fit”. The “SPR Assay G12V (GTP) Rmax” value (K-ras G12V (GTP)) was “Rmax = 300000”, the Kd (K-ras G12V (GTP); value in mM) was 10 mM and the “SPR Assay Wild-type (GDP) Kd” value (K-ras wild-type (GDP)) was “No”. For the same molecule, the “SPR Assay Wild-type (GTP) Kd” value (K-ras wild-type (GTP)) was “No binding/fit”.
